Like-named read-outs stand apart in the source and are kept apart here.
How the values were obtained:
[1] = Stability of radioligand incubated in saline (radiolytic degradation); type: physicochemical
Description: (§1) The radiolabeling of PSMA-617 (Advanced Biochemical Compounds, ABX GmbH, Radeberg, Germany) with ^161Tb was performed under standard labeling conditions (Supplementary material). […] The n-octanol/PBS distribution coefficient (logD) was determined for ^161Tb-PSMA-617 (Supplementary material). All of these experiments were performed as previously reported for ^177Lu-PSMA-617 [27].

[2] = n-octanol/PBS distribution coefficient (logD), shake-flask method; type: physicochemical; details: PBS pH 7.4
Description: as §1
It was diluted in PBS pH 7.4 (∼500 kBq, 25 µL, 0.01 nmol) and added to polypropylene tubes containing 1475 µL PBS and 1500 µL n-octanol followed by vigorous vortexing for 1 min. Phase separation was obtained by centrifugation at 1200 rcf for 6 min. The distribution coefficients were calculated as the logarithm of the ratio of counts per minute (cpm) measured in the n-octanol phase relative to the cpm measured in the PBS pH 7.4 phase using a γ-counter (Perkin Elmer, Wallac Wizard 1480). At least three experiments were performed in quintuplicate.

[3] = test system: PSMA-positive PC-3 PIP tumor cells; assay: Tumor cell uptake and internalization; type: cell-based, human; details: for Internalized fraction: PC-3 PIP
[4] = test system: PSMA-negative PC-3 flu tumor cells; assay: Tumor cell uptake and internalization; type: cell-based; details: 2–4 h incubation
[5] = test system: PC-3 PIP/flu tumor-bearing mice; details: for Biodistribution: Blood / Biodistribution: Bone / Biodistribution: Heart / Biodistribution: Intestines / Biodistribution: Kidneys / Biodistribution: Liver / Biodistribution: Lung / Biodistribution: Muscle / Biodistribution: PC-3 PIP tumor / Biodistribution: PC-3 flu tumor / Biodistribution: Salivary glands / Biodistribution: Spleen / Biodistribution: Stomach: 5.0 MBq, 1 nmol i.v.; for Tumor-to-blood / Tumor-to-kidney / Tumor-to-liver: PC-3 PIP tumor
Description: Biodistribution studies were performed 12–14 days after tumor cell inoculation when the tumor xenografts reached an average tumor volume of about ~50–200 mm^3 (Supplementary material). PSMA-617 was labeled with ^161Tb at a specific activity of 5.0 MBq/nmol and diluted in saline. […] The mice were sacrificed at 1 h, 4 h, 24 h, 48 h, or 96 h post injection (p.i.) and selected tissues and organs were collected, weighed, and measured using a γ-counter (Perkin Elmer, Wallac Wizard 1480). Groups of 3–5 mice were sacrificed at each time point. The results were decay-corrected and listed as percentage of the injected activity per gram of tissue mass (% IA/g). Data are presented as the average ± standard deviation (SD).
A p-value of < 0.05 was considered statistically significant.
Biodistribution studies were performed 12–14 days after tumor cell inoculation. The experimental procedure of the biodistribution studies is described in the main manuscript.

[6] = test system: mice inoculated with PC-3 PIP cells; assay: Additional therapy study (injection 2 days after tumor cell inoculation); type: in vivo; details: for Median Survival: control 26 days
Description: The day of the treatment, two days after tumor cell inoculation, was defined as Day 0 of the study (Table S7).
Endpoint criteria: The mice were monitored until they reached an endpoint (definition of endpoints, see Chapter 13) or over the whole period of 38 days when the study was terminated.
Data analysis of the therapy study: The tumor growth delay indices (TGDI2 and TGDI5) were calculated as reported in the Methods of the main manuscript. The median survival was determined using GraphPad Prism software (version 7).

[7] = test system: PC-3 PIP/flu tumor-bearing mice; details: ~25 MBq
Description: In a separate study, SPECT/CT experiments were performed 12–14 days after tumor cell inoculation using a dedicated small-animal SPECT/CT camera (NanoSPECT/CT^TM, Mediso Medical Imaging Systems, Budapest, Hungary) as previously reported (Supplementary material) [34]. ^161Tb-PSMA-617 (~25 MBq/nmol) was diluted in saline for injection. Scans were acquired at 1 h, 4 h, and 24 h after injection of the radioligands (~25 MBq, 1 nmol, 100 μL). During the in-vivo scans, mice were anesthetized using a mixture of Isoflurane and oxygen.
Methods: Mice were inoculated with PC-3 PIP/flu tumor cells, as described for biodistribution studies, and injected with ^161Tb-PSMA-617 (~25 MBq, 1 nmol per mouse) about 12-14 days later. Under these conditions, the SPECT scans lasted for ~40 min. […] During the in-vivo scans, mice were anesthetized using a mixture of Isoflurane and oxygen.
SPECT/CT experiments were performed using a dedicated small-animal SPECT/CT camera (NanoSPECT/CT^TM, Mediso Medical Imaging Systems, Budapest, Hungary) as previously reported [4, 10]. The images were acquired using Nucline software (version 1.02, Mediso Ltd., Budapest, Hungary). The real-time CT reconstruction used a cone-beam-filtered backprojection. […] The lower scale of radioactivity was cut by 1% to make tumors and kidneys best visible.

O=C([O-])CN1CCN(CC(=O)[O-])CCN(CC(=O)NCC2CCC(C(=O)NC(Cc3ccc4ccccc4c3)C(=O)NCCCCC(NC(=O)NC(CCC(=O)O)C(=O)O)C(=O)O)CC2)CCN(CC(=O)[O-])CC1.[161Tb+3] (stereo not shown) [^161Tb-PSMA-617]
Stability (intact radioligand) ([1]; 50 MBq/nmol, 250 MBq/500 μL, at least 1 h, without L-ascorbic acid): > 98%
Stability when incubated for longer time periods ([1]; 250 MBq/500 μL, longer than 1 h, without L-ascorbic acid): radiolytic degradation
Stability (intact radioligand) ([1]; in the presence of L-ascorbic acid, up to 24 h): ≥ 98%
n-octanol/PBS distribution coefficient (logD value) [2]: −3.9 ± 0.1
PC-3 PIP tumor cell uptake ([3]; 2–4 h incubation): 47–54%
Uptake in PC-3 PIP tumor cells ([3]; 2 h incubation): 47%
Uptake in PC-3 PIP tumor cells ([3]; 4 h incubation): 54%
Internalized fraction ([3]; 2–4 h incubation): 8–11%
Internalized fraction ([3]; 2 h): 8%
Internalized fraction ([3]; 4 h): 11%
Uptake in PC-3 flu tumor cells [4]: < 0.5%
Biodistribution: Blood ([5]; 1 h p.i.): 0.49 ± 0.16 %IA/g
Biodistribution: Bone ([5]; 1 h p.i.): 0.21 ± 0.07 %IA/g
Biodistribution: Heart ([5]; 1 h p.i.): 0.21 ± 0.05 %IA/g
Biodistribution: Intestines ([5]; 1 h p.i.): 0.26 ± 0.05 %IA/g
Biodistribution: Kidneys ([5]; 1 h p.i.): 9.6 ± 1.3 %IA/g
Biodistribution: Liver ([5]; 1 h p.i.): 0.28 ± 0.05 %IA/g
Biodistribution: Lung ([5]; 1 h p.i.): 0.66 ± 0.28 %IA/g
Biodistribution: Muscle ([5]; 1 h p.i.): 0.13 ± 0.06 %IA/g
Biodistribution: PC-3 PIP tumor ([5]; 1 h p.i.): 44 ± 5.3 %IA/g
Biodistribution: PC-3 flu tumor ([5]; 1 h p.i.): 0.39 ± 0.18 %IA/g
Biodistribution: Salivary glands ([5]; 1 h p.i.): 0.28 ± 0.13 %IA/g
Biodistribution: Spleen ([5]; 1 h p.i.): 0.54 ± 0.08 %IA/g
Biodistribution: Stomach ([5]; 1 h p.i.): 0.22 ± 0.05 %IA/g
Tumor-to-blood ([5]; 1 h p.i.): 99 ± 27
Tumor-to-kidney ([5]; 1 h p.i.): 4.7 ± 0.5
Tumor-to-liver ([5]; 1 h p.i.): 163 ± 23
Biodistribution: Blood ([5]; 4 h p.i.): 0.08 ± 0.01 %IA/g
Biodistribution: Bone ([5]; 4 h p.i.): 0.09 ± 0.02 %IA/g
Biodistribution: Heart ([5]; 4 h p.i.): 0.05 ± 0.01 %IA/g
Biodistribution: Intestines ([5]; 4 h p.i.): 0.06 ± 0.01 %IA/g
Biodistribution: Kidneys ([5]; 4 h p.i.): 2.9 ± 0.14 %IA/g
Biodistribution: Liver ([5]; 4 h p.i.): 0.17 ± 0.02 %IA/g
Biodistribution: Lung ([5]; 4 h p.i.): 0.11 ± 0.01 %IA/g
Biodistribution: Muscle ([5]; 4 h p.i.): 0.03 ± 0.00 %IA/g
Biodistribution: PC-3 PIP tumor ([5]; 4 h p.i.): 49 ± 5.5 %IA/g
Biodistribution: PC-3 flu tumor ([5]; 4 h p.i.): 0.13 ± 0.02 %IA/g
Biodistribution: Salivary glands ([5]; 4 h p.i.): 0.07 ± 0.01 %IA/g
Biodistribution: Spleen ([5]; 4 h p.i.): 0.13 ± 0.01 %IA/g
Biodistribution: Stomach ([5]; 4 h p.i.): 0.08 ± 0.01 %IA/g
Tumor-to-blood ([5]; 4 h p.i.): 640 ± 132
Tumor-to-kidney ([5]; 4 h p.i.): 17 ± 1.6
Tumor-to-liver ([5]; 4 h p.i.): 302 ± 64
Biodistribution: Blood ([5]; 24 h p.i.): 0.03 ± 0.00 %IA/g
Biodistribution: Bone ([5]; 24 h p.i.): 0.09 ± 0.01 %IA/g
Biodistribution: Heart ([5]; 24 h p.i.): 0.03 ± 0.00 %IA/g
Biodistribution: Intestines ([5]; 24 h p.i.): 0.03 ± 0.00 %IA/g
Biodistribution: Kidneys ([5]; 24 h p.i.): 1.1 ± 0.09 %IA/g
Biodistribution: Liver ([5]; 24 h p.i.): 0.11 ± 0.02 %IA/g
Biodistribution: Lung ([5]; 24 h p.i.): 0.11 ± 0.09 %IA/g
Biodistribution: Muscle ([5]; 24 h p.i.): 0.02 ± 0.00 %IA/g
Biodistribution: PC-3 PIP tumor ([5]; 24 h p.i.): 43 ± 5.5 %IA/g
Biodistribution: PC-3 flu tumor ([5]; 24 h p.i.): 0.08 ± 0.01 %IA/g
Biodistribution: Salivary glands ([5]; 24 h p.i.): 0.05 ± 0.01 %IA/g
Biodistribution: Spleen ([5]; 24 h p.i.): 0.08 ± 0.01 %IA/g
Biodistribution: Stomach ([5]; 24 h p.i.): 0.04 ± 0.00 %IA/g
Tumor-to-blood ([5]; 24 h p.i.): 1668 ± 302
Tumor-to-kidney ([5]; 24 h p.i.): 43 ± 10
Tumor-to-liver ([5]; 24 h p.i.): 383 ± 65
Biodistribution: Blood ([5]; 48 h p.i.): 0.02 ± 0.00 %IA/g
Biodistribution: Bone ([5]; 48 h p.i.): 0.05 ± 0.01 %IA/g
Biodistribution: Heart ([5]; 48 h p.i.): 0.03 ± 0.00 %IA/g
Biodistribution: Intestines ([5]; 48 h p.i.): 0.02 ± 0.00 %IA/g
Biodistribution: Kidneys ([5]; 48 h p.i.): 0.58 ± 0.05 %IA/g
Biodistribution: Liver ([5]; 48 h p.i.): 0.12 ± 0.01 %IA/g
Biodistribution: Lung ([5]; 48 h p.i.): 0.04 ± 0.01 %IA/g
Biodistribution: Muscle ([5]; 48 h p.i.): 0.01 ± 0.00 %IA/g
Biodistribution: PC-3 PIP tumor ([5]; 48 h p.i.): 28 ± 4.1 %IA/g
Biodistribution: PC-3 flu tumor ([5]; 48 h p.i.): 0.06 ± 0.01 %IA/g
Biodistribution: Salivary glands ([5]; 48 h p.i.): 0.03 ± 0.00 %IA/g
Biodistribution: Spleen ([5]; 48 h p.i.): 0.07 ± 0.00 %IA/g
Biodistribution: Stomach ([5]; 48 h p.i.): 0.03 ± 0.00 %IA/g
Tumor-to-blood ([5]; 48 h p.i.): 1346 ± 166
Tumor-to-kidney ([5]; 48 h p.i.): 49 ± 7.2
Tumor-to-liver ([5]; 48 h p.i.): 229 ± 30
Biodistribution: Blood ([5]; 96 h p.i.): 0.01 ± 0.00 %IA/g
Biodistribution: Bone ([5]; 96 h p.i.): 0.06 ± 0.01 %IA/g
Biodistribution: Heart ([5]; 96 h p.i.): 0.02 ± 0.00 %IA/g
Biodistribution: Intestines ([5]; 96 h p.i.): 0.12 ± 0.12 %IA/g
Biodistribution: Kidneys ([5]; 96 h p.i.): 0.40 ± 0.04 %IA/g
Biodistribution: Liver ([5]; 96 h p.i.): 0.10 ± 0.00 %IA/g
Biodistribution: Lung ([5]; 96 h p.i.): 0.03 ± 0.00 %IA/g
Biodistribution: Muscle ([5]; 96 h p.i.): 0.01 ± 0.00 %IA/g
Biodistribution: PC-3 PIP tumor ([5]; 96 h p.i.): 22 ± 4.3 %IA/g
Biodistribution: PC-3 flu tumor ([5]; 96 h p.i.): 0.04 ± 0.01 %IA/g
Biodistribution: Salivary glands ([5]; 96 h p.i.): 0.03 ± 0.00 %IA/g
Biodistribution: Spleen ([5]; 96 h p.i.): 0.07 ± 0.01 %IA/g
Biodistribution: Stomach ([5]; 96 h p.i.): 0.66 ± 1.01 %IA/g
Tumor-to-blood ([5]; 96 h p.i.): 2053 ± 412
Tumor-to-kidney ([5]; 96 h p.i.): 56 ± 9.7
Tumor-to-liver ([5]; 96 h p.i.): 224 ± 33
First mouse euthanized ([6]; 2.5 MBq): 26 days
TGDI2 ([6]; 2.5 MBq): 1.0 ± 0.4
TGDI5 ([6]; 2.5 MBq): 1.2 ± 0.3
Median Survival ([6]; 2.5 MBq): 31 days
Last mouse euthanized ([6]; 2.5 MBq, study end Day 38): study end
First mouse euthanized ([6]; 5.0 MBq): 30 days
TGDI2 ([6]; 5.0 MBq): 1.6 ± 0.4
Median Survival ([6]; 5.0 MBq): 34 days
Last mouse euthanized ([6]; 5.0 MBq, study end Day 38): study end
Survival ([6]; 10 MBq): survived until the end of the study at Day 38
Cases in which tumors started to grow ([6]; 10 MBq, from Day 25 and Day 35 on): 2 of 8
First mouse euthanized ([6]; 10 MBq, study end Day 38): study end
Last mouse euthanized ([6]; 10 MBq, study end Day 38): study end
Uptake in the PSMA-negative PC-3 flu tumor (SPECT/CT) ([7]; 1 h, 4 h and 24 h p.i.): negligible uptake
Renal excretion of activity (SPECT/CT) ([7]; after 4 h): almost entirely excreted

— publication PMC6820371, “Terbium-161 for PSMA-targeted radionuclide therapy of prostate cancer” (European Journal of Nuclear Medicine and Molecular Imaging, 2019)
